No end group written: not given here.

One may read the IC50 as the concentration that inhibits the measured activity by half. A lower IC50 goes with greater potency.

Among the targets are HLA-DR DRB1*0301 (DR3) (Homo sapiens, UniProt P01903+P01911, A100K/A102G/A103R/A169T/F55Y/I96L/K41T/L162R/M171V/P40S/Q125H/Q178H/Q39Y/R42S/S66N/T106N/T262R/W38E/Y61H); HLA-DR DRB1*0802 (DR8) (Homo sapiens, UniProt P01903+P01911, A100R/A103L/A169T/F76Y/H45Y/I96F/K41T/L162R/M171V/P40S/Q125H/Q178H/Q39Y/Q99D/R218S/R42G/S66Y/V115G/W38E); HLA-DR DRB3*0101 (DR52) (Homo sapiens, UniProt P01903+P79483).

Holding throughout (assay): biochemical
Assay type in all cases: binding

In the next experiment the target is HLA-DR DRB1*0101 (DR1) (Homo sapiens, UniProt P01903+P01911, A100R/D57E/F55L/F60I/F76Y/I96L/L162R/M171V/P40L/Q125E/R42F/V115G/Y59C). The conditions noted are these: DRB1 *0101.
A further experiment addresses HLA-DR DRB1*0401 (DR4) (Homo sapiens, UniProt P01903+P01911, A100K/A169T/F76Y/I96L/K127E/L162R/M171V/N62H/P40V/Q125Y/R42H/S133A/S149N/S66Y/V115G/V209L/W38E). The conditions noted are these: DRB1 *0401.
Another experiment deals with HLA-DR DRB1*0405 (DR4) (Homo sapiens, UniProt P01903+P01911, A100R/A169T/D86S/F76Y/I96L/K127E/L162R/M171V/N62H/P40V/Q125Y/R42H/S133A/S149N/S66Y/V115G/V209L/W38E). The conditions noted are these: DRB1 *0405.
Another experiment has as its target HLA-DR DRB1*0701 (DR7) (Homo sapiens, UniProt P01903+P01911, A100R/A102G/A103Q/D57E/D86V/E43K/F76Y/K127E/L162R/M171V/P40G/Q125H/Q99D/R33Q/R42Y/R54Q/S133A/S66F/T210M/V115G/Y107V/Y59L/Y89S). The conditions noted are these: DRB1 *0701.
The target in the next experiment is HLA-DR DRB1*0901 (DR9) (Homo sapiens, UniProt P01903+P01911, A100R/A103E/D57H/D86V/F55Y/F60I/F76Y/I96F/K127E/L162R/M171V/P40D/Q125H/Q99R/R33Q/R42F/S133A/S66N/T210M/V115G/W38K/Y107V/Y59G/Y89S). The conditions noted are these: DRB1 *0901.
The next experiment concerns the target HLA-DR DRB1*1101 (DR11) (Homo sapiens, UniProt P01903+P01911, A100R/A169T/A87E/I96F/K41T/L162R/M171V/P40S/Q125H/Q178H/Q39Y/Q99D/R42S/S66Y/T262R/V115G/W38E). The conditions noted are these: DRB1 *1101.
The next experiment concerns the target HLA-DR DRB1*1302 (DR13) (Homo sapiens, UniProt P01903+P01911, A100E/A169T/K41T/L162R/M171V/P40S/Q125H/Q178H/Q39Y/Q99D/R42S/S66N/T262R/V115G/W38E/Y61H). Conditions: DRBI *1302.
The next experiment has as its target HLA-DR DRB4*0101 (DR53) (Homo sapiens, UniProt P01903+P13762, G164S). Conditions: DRB4 *0101.
The next experiment addresses HLA-DR DRB5*0101 (DR51) (Homo sapiens, UniProt P01903+Q30154). The conditions noted are these: DRB5 *0101.
A further experiment has as its target HLA-DR DRB1*1501 (DR15) (Homo sapiens, UniProt P01903+P01911). The conditions noted are these: DRBI *1501.

Sequence of HLA-DR DRB1*0301 (DR3) (P01903 26-254 limits assumed, other chains not shown): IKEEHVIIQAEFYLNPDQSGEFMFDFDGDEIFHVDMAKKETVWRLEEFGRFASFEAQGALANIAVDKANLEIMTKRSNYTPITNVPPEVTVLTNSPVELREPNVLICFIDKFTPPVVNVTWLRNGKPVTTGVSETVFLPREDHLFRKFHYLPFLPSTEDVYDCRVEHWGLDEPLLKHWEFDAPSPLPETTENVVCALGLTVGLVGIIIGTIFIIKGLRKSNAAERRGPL
Sequence of HLA-DR DRB1*1302 (DR13) (P01903 26-254 limits assumed, other chains not shown): as above
Sequence of HLA-DR DRB1*1101 (DR11) (P01903 26-254 limits assumed, other chains not shown): as above

Regarding VEALYLVCGERGFFY, the IC50 worked out at 76 nM against HLA-DR DRB1*0101 (DR1); 17600 nM at HLA-DR DRB1*0301 (DR3); 209 nM at HLA-DR DRB1*0401 (DR4); 1040 nM on HLA-DR DRB1*0405 (DR4); 3870 nM against HLA-DR DRB1*0701 (DR7); 24600 nM at HLA-DR DRB1*0802 (DR8). The 50% inhibitory concentration (IC50) was 2230 nM at HLA-DR DRB1*0901 (DR9); 3560 nM on HLA-DR DRB1*1101 (DR11); 4400 nM on HLA-DR DRB1*1302 (DR13); 4440 nM on HLA-DR DRB3*0101 (DR52); 30 nM at HLA-DR DRB4*0101 (DR53); 25500 nM at HLA-DR DRB5*0101 (DR51).

YLVTGERGFFYTDKT: the IC50 on HLA-DR DRB1*0101 (DR1) is 3260 nM; against HLA-DR DRB1*0401 (DR4) it was greater than 20500 nM; against HLA-DR DRB1*0405 (DR4), greater than 30100 nM; on HLA-DR DRB1*0802 (DR8), greater than 25800 nM; against HLA-DR DRB1*0901 (DR9), 2910 nM; against HLA-DR DRB1*1101 (DR11) it was 16800 nM. Besides, the half-maximal inhibitory concentration (IC50) is 17400 nM against HLA-DR DRB1*1302 (DR13); greater than 25600 nM at HLA-DR DRB1*1501 (DR15); 359 nM at HLA-DR DRB3*0101 (DR52); 30800 nM on HLA-DR DRB4*0101 (DR53); greater than 28400 nM against HLA-DR DRB5*0101 (DR51).

As to FLRSVFANSLVYGAS, the IC50 worked out at 4.3 nM against HLA-DR DRB1*0101 (DR1); 6.7 nM against HLA-DR DRB1*0401 (DR4); 59 nM against HLA-DR DRB1*0405 (DR4); 16 nM against HLA-DR DRB1*0701 (DR7); 13400 nM at HLA-DR DRB1*0802 (DR8); 15100 nM at HLA-DR DRB1*0901 (DR9). Further, the half-maximal inhibitory concentration (IC50) at HLA-DR DRB1*1101 (DR11) was determined as 973 nM; against HLA-DR DRB1*1302 (DR13), 5.6 nM; against HLA-DR DRB1*1501 (DR15) it was 13 nM; against HLA-DR DRB3*0101 (DR52), 158000 nM; at HLA-DR DRB5*0101 (DR51), 141 nM.

With KLSQELHKLQTYPRT, the 50% inhibitory concentration (IC50) at HLA-DR DRB1*0101 (DR1) was 19 nM; at HLA-DR DRB1*0301 (DR3), 197000 nM; against HLA-DR DRB1*0401 (DR4) it was 19700 nM; against HLA-DR DRB1*0405 (DR4), 12200 nM; on HLA-DR DRB1*0701 (DR7), 85500 nM; against HLA-DR DRB1*0802 (DR8) it was 28700 nM. Also, the IC50 against HLA-DR DRB1*0901 (DR9) was 19100 nM; against HLA-DR DRB1*1101 (DR11) it was 2380 nM; on HLA-DR DRB1*1302 (DR13), greater than 12600 nM; against HLA-DR DRB3*0101 (DR52) it was greater than 263000 nM; at HLA-DR DRB4*0101 (DR53), 870 nM; on HLA-DR DRB5*0101 (DR51), 37 nM.

Take VEALYLVTGERGFFY: the concentration for half-maximal inhibition (IC50) against HLA-DR DRB1*0101 (DR1) amounted to 9.9 nM; on HLA-DR DRB1*0301 (DR3), 2010 nM; at HLA-DR DRB1*0401 (DR4) it was 60 nM; against HLA-DR DRB1*0405 (DR4) it was 2340 nM; at HLA-DR DRB1*0701 (DR7), 195 nM; against HLA-DR DRB1*0802 (DR8) it was 1220 nM. Also, the 50% inhibitory concentration (IC50) against HLA-DR DRB1*0901 (DR9) came to 683 nM; on HLA-DR DRB1*1101 (DR11), 4860 nM; against HLA-DR DRB3*0101 (DR52), 17200 nM; on HLA-DR DRB4*0101 (DR53), 13 nM; on HLA-DR DRB5*0101 (DR51), 78 nM.

As to EQTTTSITSLYQLEN, the IC50 against HLA-DR DRB1*0101 (DR1) was 19000 nM; at HLA-DR DRB1*0301 (DR3), greater than 144000 nM; against HLA-DR DRB1*0401 (DR4), 170 nM; at HLA-DR DRB1*0405 (DR4), 272 nM; against HLA-DR DRB1*0701 (DR7), 2230 nM; at HLA-DR DRB1*0802 (DR8) it was greater than 54400 nM. The IC50 against HLA-DR DRB1*0901 (DR9) is 17400 nM; against HLA-DR DRB1*1101 (DR11), greater than 10500 nM; on HLA-DR DRB3*0101 (DR52), greater than 18700 nM; on HLA-DR DRB4*0101 (DR53), 29600 nM; on HLA-DR DRB5*0101 (DR51), 48500 nM.

For AVTIYEMLQNIFAIF, the IC50 at HLA-DR DRB1*0101 (DR1) was 17 nM; at HLA-DR DRB1*0301 (DR3) it was 23700 nM; on HLA-DR DRB1*0405 (DR4), 163 nM; against HLA-DR DRB1*0802 (DR8), 6870 nM; against HLA-DR DRB1*0901 (DR9) it was 4540 nM; against HLA-DR DRB1*1101 (DR11) it was 29700 nM. Besides, the 50% inhibitory concentration (IC50) against HLA-DR DRB1*1302 (DR13) came to 109 nM; at HLA-DR DRB3*0101 (DR52), 2830 nM; on HLA-DR DRB4*0101 (DR53), 1120 nM; against HLA-DR DRB5*0101 (DR51) it was 14000 nM.

RMSSLHLKRYYGRIL: the 50% inhibitory concentration (IC50) at HLA-DR DRB1*0101 (DR1) was 275 nM; against HLA-DR DRB1*0401 (DR4) it was 993 nM; at HLA-DR DRB1*0405 (DR4), 34 nM; at HLA-DR DRB1*0701 (DR7) it was 283 nM; against HLA-DR DRB1*0802 (DR8), 277 nM; against HLA-DR DRB1*0901 (DR9), 15000 nM. Also, the half-inhibitory concentration (IC50) against HLA-DR DRB1*1101 (DR11) was 1040 nM; at HLA-DR DRB1*1302 (DR13), 2530 nM; against HLA-DR DRB1*1501 (DR15) it was 1.3 nM; on HLA-DR DRB3*0101 (DR52), greater than 26200 nM; against HLA-DR DRB4*0101 (DR53), 2260 nM; at HLA-DR DRB5*0101 (DR51) it was 491 nM.
